Structures can show the parent of a compound that is named as a salt.

T1 sequence (P19156 2-1034 limits assumed): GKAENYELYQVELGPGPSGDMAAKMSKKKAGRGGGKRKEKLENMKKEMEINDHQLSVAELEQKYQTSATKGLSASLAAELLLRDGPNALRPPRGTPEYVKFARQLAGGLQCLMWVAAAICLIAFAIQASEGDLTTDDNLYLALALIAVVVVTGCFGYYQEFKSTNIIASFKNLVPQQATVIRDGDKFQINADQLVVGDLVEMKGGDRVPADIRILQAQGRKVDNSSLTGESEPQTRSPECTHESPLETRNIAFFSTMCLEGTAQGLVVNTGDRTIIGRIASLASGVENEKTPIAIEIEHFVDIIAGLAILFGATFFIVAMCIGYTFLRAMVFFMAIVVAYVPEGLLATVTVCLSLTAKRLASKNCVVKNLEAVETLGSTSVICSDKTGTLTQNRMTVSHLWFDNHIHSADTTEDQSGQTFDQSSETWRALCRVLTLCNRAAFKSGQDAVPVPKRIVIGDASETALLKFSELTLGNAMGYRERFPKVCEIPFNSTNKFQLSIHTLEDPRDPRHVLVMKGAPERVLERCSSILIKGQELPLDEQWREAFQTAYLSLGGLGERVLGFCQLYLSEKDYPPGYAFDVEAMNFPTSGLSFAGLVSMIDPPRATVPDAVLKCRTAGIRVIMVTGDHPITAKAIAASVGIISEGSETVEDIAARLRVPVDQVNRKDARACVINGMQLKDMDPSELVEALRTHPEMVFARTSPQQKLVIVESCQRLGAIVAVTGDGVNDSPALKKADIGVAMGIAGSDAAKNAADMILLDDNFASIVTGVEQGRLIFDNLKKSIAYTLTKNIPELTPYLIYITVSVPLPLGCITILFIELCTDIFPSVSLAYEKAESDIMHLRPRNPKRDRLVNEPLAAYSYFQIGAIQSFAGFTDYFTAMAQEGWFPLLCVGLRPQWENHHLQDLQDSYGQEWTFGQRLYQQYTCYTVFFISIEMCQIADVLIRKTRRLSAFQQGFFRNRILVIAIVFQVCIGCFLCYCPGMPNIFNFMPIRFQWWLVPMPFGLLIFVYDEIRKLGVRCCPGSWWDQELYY
T1 sequence (P18434 whole entry partner): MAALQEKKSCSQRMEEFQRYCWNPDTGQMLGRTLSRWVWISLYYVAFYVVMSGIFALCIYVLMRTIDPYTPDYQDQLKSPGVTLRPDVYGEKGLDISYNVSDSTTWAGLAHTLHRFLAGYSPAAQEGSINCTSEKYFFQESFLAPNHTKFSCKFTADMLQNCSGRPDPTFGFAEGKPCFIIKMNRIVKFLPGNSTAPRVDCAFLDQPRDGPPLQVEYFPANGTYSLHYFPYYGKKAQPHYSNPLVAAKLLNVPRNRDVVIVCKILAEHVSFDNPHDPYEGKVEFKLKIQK

The assay has as its target T1, H+,K+-ATPase (Sus scrofa, UniProt P19156).
T1 construct: a microsomal fraction of gastric mucosa was prepared from the stomach of swine; from tissue; host or cells: swine stomach, gastric mucosa microsomal fraction
Briefly: Proton Potassium-Adenosine Triphosphatase (H+,K+-ATPase) inhibitory activity test. It counts as biochemical. The following applies: microsomal fraction of swine gastric mucosa; pH 6.5, 37° C., 10 mmol/L potassium chloride; malachite green colorimetry at 610 nm. The method, then: Proton Potassium-Adenosine Triphosphatase (H^+,K^+-ATPase) Inhibitory Activity Test
According to the method of Wallmark et al. [Biochim. Biophys. Acta, 728, 31 (1983)], a microsomal fraction of gastric mucosa was prepared from the stomach of swine. First, the stomach was removed, washed with tap water, and immersed in 3 mol/L sodium chloride, and the surface of the mucosa was wiped with a paper towel. The gastric mucosa was removed, minced, and homogenized in a 0.25 mol/L sucrose solution (pH 6.8) containing 1 mmol/L EDTA and 10 mmol/L tris-hydrochloric acid using polytron (Kinematica). The obtained homogenate was centrifuged at 20,000×g for 30 min and the supernatant was centrifuged at 100,000×g for 90 min. The precipitate was suspended in 0.25 mol/L sucrose solution, the suspension was superimposed on a 0.25 mol/L sucrose solution containing 7.5% Ficoll, and centrifuged at 100,000×g for 5 hr. The fraction containing the interface between the both layers was recovered, and centrifugally washed with 0.25 mol/L sucrose solution.
The obtained microsomal fraction was used as an H^+/K^+-ATPase preparation.
To 50 mmol/L HEPES-tris buffer (5 mmol/L magnesium chloride, 10 mmol/L potassium chloride, 10 μmol/L valinomycin, pH=6.5, 40 μL) containing 2.5 μg/mL enzyme preparation based on the protein concentration was added a test compound (5 μL) dissolved in 10% dimethyl sulfoxide solution, and the mixture was incubated at 37° C. for 30 min. A 2 mmol/L adenosine triphosphate tris salt solution (50 mmol/L HEPES-tris buffer (5 mmol/L magnesium chloride, pH 6.5), 5 μL) was added to start an enzyme reaction. The enzyme reaction was performed at 37° C. for 20 min, and then a malachite green solution (a mixture of 0.12% malachite green sulfate (2.5 mol/L) solution, 7.5% ammonium molybdate and 11% Tween 20 at a ratio of 100:25:2, 15 μL) was added to stop the reaction. The reaction mixture was stood at room temperature for 15 min, and the resulting reaction product of inorganic phosphorus and malachite green was measured by colorimetric quantification at a wavelength of 610 nm. In addition, the amount of inorganic phosphoric acid in a reaction solution free of potassium chloride was also measured in the same manner, and the value was extracted from that in the presence of potassium chloride, whereby the H^+,K^+-ATPase activity was measured. The inhibitory rate (%) was determined from the activity value of the control and that at each concentration of the test compound, and 50% inhibitory concentration (IC50) to H^+,K^+-ATPase was determined.
`CNCc1cc(-c2cccnc2F)c(Sc2nccs2)s1` [Example 18, 1-{4-(2-fluoropyridin-3-yl)-5-[(1,3-thiazol-2-yl)thio]thiophen-2-yl}-N-methylmethanamine fumarate] gave an IC50 of 2200 nM. The same measure for `CNCc1cn(Cc2ccc(F)cc2)c(-c2ccccc2)n1` [Example 3, 1-[1-(4-fluorobenzyl)-2-phenyl-1H-imidazol-4-yl]-N-methylmethanamine dihydrochloride]: 309000 nM; for `CNCc1cc(Sc2ccc(Cl)nc2)n(-c2ccccc2Cl)n1` [Example 27, 1-{1-(2-chlorophenyl)-5-[(6-chloropyridin-3-yl)thio]-1H-pyrazol-3-yl}-N-methylmethanamine hydrochloride]: 31 nM; for `CNCc1cc(-c2ccccc2F)c(Sc2cccc(OC)c2)s1` [Example 10, 1-{4-(2-fluorophenyl)-5-[(3-methoxyphenyl)thio]-2-thienyl}-N-methylmethanamine fumarate]: 170 nM. The same measure for `CNCc1nc(-c2ccccc2)n(Cc2ccc(F)cc2)c1Cl` [Example 6, 1-[5-chloro-1-(4-fluorobenzyl)-2-phenyl-1H-imidazol-4-yl]-N-methylmethanamine oxalate]: 1400 nM. The value for `CNCc1cc(-c2ccccc2F)c([S+]([O-])c2cccc(OC)c2)s1` (stereo not shown) [Example 11, 1-{4-(2-fluorophenyl)-5-[(3-methoxyphenyl)sulfinyl]-2-thienyl}-N-methylmethanamine fumarate] was 400 nM. In the case of `CNCc1cc(-c2cccnc2F)c(Sc2ccoc2C)s1` [Example 19, 1-{4-(2-fluoropyridin-3-yl)-5-[(2-methylfuran-3-yl)thio]thiophen-2-yl}-N-methylmethanamine hydrochloride], the IC50 is 220 nM.

Usually IC50 stands for the concentration needed to halve the response being measured.
